According to PubChem BioAssay (NCI):
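Assay format: 96-well plates, 48-hour exposure. At the GI50, growth is halved. TGI marks complete inhibition of growth.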

Legend:
Assay in all cases: NCI-60 cell line screen, 48 h
786-0 renal = tested on: 786-0 renal
A498 renal = tested on: A498 renal
A549 NSCLC = tested on: A549 NSCLC
ACHN renal = tested on: ACHN renal
BT-549 breast = tested on: BT-549 breast
CAKI-1 renal = tested on: CAKI-1 renal
CCRF-CEM leukemia = tested on: CCRF-CEM leukemia
DU-145 prostate = tested on: DU-145 prostate
EKVX NSCLC = tested on: EKVX NSCLC
HCC-2998 colon = tested on: HCC-2998 colon
HCT-116 colon = tested on: HCT-116 colon
HCT-15 colon = tested on: HCT-15 colon
HL-60(TB) leukemia = tested on: HL-60(TB) leukemia
HOP-62 NSCLC = tested on: HOP-62 NSCLC
HOP-92 NSCLC = tested on: HOP-92 NSCLC
HS 578T breast = tested on: HS 578T breast
HT29 colon = tested on: HT29 colon
IGROV1 ovarian = tested on: IGROV1 ovarian
K-562 leukemia = tested on: K-562 leukemia
KM12 colon = tested on: KM12 colon
LOX IMVI melanoma = tested on: LOX IMVI melanoma
M14 melanoma = tested on: M14 melanoma
MALME-3M melanoma = tested on: MALME-3M melanoma
MCF7 breast = tested on: MCF7 breast
MDA-MB-231 breast = tested on: MDA-MB-231 breast
MDA-MB-435 = tested on: MDA-MB-435
MDA-N = tested on: MDA-N
MOLT-4 leukemia = tested on: MOLT-4 leukemia
NCI-H23 lung = tested on: NCI-H23 lung
NCI-H522 lung = tested on: NCI-H522 lung
NCI/ADR-RES ovarian = tested on: NCI/ADR-RES ovarian
OVCAR-3 ovarian = tested on: OVCAR-3 ovarian
OVCAR-4 ovarian = tested on: OVCAR-4 ovarian
OVCAR-5 ovarian = tested on: OVCAR-5 ovarian
OVCAR-8 ovarian = tested on: OVCAR-8 ovarian
PC-3 prostate = tested on: PC-3 prostate
RPMI-8226 leukemia = tested on: RPMI-8226 leukemia
RXF 393 renal = tested on: RXF 393 renal
SF-268 CNS = tested on: SF-268 CNS
SF-295 CNS = tested on: SF-295 CNS
SK-MEL-28 melanoma = tested on: SK-MEL-28 melanoma
SK-OV-3 ovarian = tested on: SK-OV-3 ovarian
SN12C renal = tested on: SN12C renal
SNB-19 CNS = tested on: SNB-19 CNS
SNB-75 CNS = tested on: SNB-75 CNS
SR leukemia = tested on: SR leukemia
SW-620 colon = tested on: SW-620 colon
T-47D breast = tested on: T-47D breast
TK-10 renal = tested on: TK-10 renal
U251 CNS = tested on: U251 CNS
UACC-257 melanoma = tested on: UACC-257 melanoma
UACC-62 melanoma = tested on: UACC-62 melanoma
UO-31 renal = tested on: UO-31 renal
COLO 205 colon = tested on: COLO 205 colon
NCI-H226 lung = tested on: NCI-H226 lung
NCI-H460 lung = tested on: NCI-H460 lung
SF-539 CNS = tested on: SF-539 CNS
SK-MEL-5 melanoma = tested on: SK-MEL-5 melanoma

With `Cc1cn2c(/C=C3/C(=O)Nc4cccc(Cl)c43)c(Cl)nc2s1` the TGI (786-0 renal) was greater than 100 µM, the TGI (A498 renal) was greater than 100 µM and the TGI (A549 NSCLC) was greater than 100 µM. It also gave a TGI (ACHN renal) greater than 100 µM, a TGI (BT-549 breast) greater than 100 µM and a TGI (CAKI-1 renal) greater than 100 µM. The TGI (CCRF-CEM leukemia) was 28 µM, the TGI (DU-145 prostate) was greater than 100 µM and the TGI (EKVX NSCLC) was greater than 100 µM. For the same molecule, the TGI (HCC-2998 colon) was 76.5 µM, the TGI (HCT-116 colon) was greater than 100 µM and the TGI (HCT-15 colon) was greater than 100 µM. For the same molecule, the TGI (HL-60(TB) leukemia) was greater than 100 µM, the TGI (HOP-62 NSCLC) was 39.1 µM and the TGI (HOP-92 NSCLC) was greater than 100 µM. For the same molecule, the TGI (HS 578T breast) was 42.5 µM, the TGI (HT29 colon) was greater than 100 µM and the TGI (IGROV1 ovarian) was greater than 100 µM. For the same molecule, the TGI (K-562 leukemia) was greater than 100 µM, the TGI (KM12 colon) was greater than 100 µM and the TGI (LOX IMVI melanoma) was greater than 100 µM. It also gave a TGI (M14 melanoma) greater than 100 µM, a TGI (MALME-3M melanoma) greater than 100 µM and a TGI (MCF7 breast) greater than 100 µM. The TGI (MDA-MB-231 breast) was greater than 100 µM, the TGI (MDA-MB-435) was greater than 100 µM and the TGI (MDA-N) was greater than 100 µM. It also gave a TGI (MOLT-4 leukemia) greater than 100 µM, a TGI (NCI-H23 lung) greater than 100 µM and a TGI (NCI-H522 lung) greater than 100 µM. The TGI (NCI/ADR-RES ovarian) was greater than 100 µM, the TGI (OVCAR-3 ovarian) was greater than 100 µM and the TGI (OVCAR-4 ovarian) was greater than 100 µM. For the same molecule, the TGI (OVCAR-5 ovarian) was greater than 100 µM, the TGI (OVCAR-8 ovarian) was greater than 100 µM and the TGI (PC-3 prostate) was greater than 100 µM. It also gave a TGI (RPMI-8226 leukemia) greater than 100 µM, a TGI (RXF 393 renal) of 87 µM and a TGI (SF-268 CNS) greater than 100 µM. For the same molecule, the TGI (SF-295 CNS) was greater than 100 µM, the TGI (SK-MEL-28 melanoma) was 36.5 µM and the TGI (SK-OV-3 ovarian) was greater than 100 µM. It also gave a TGI (SN12C renal) greater than 100 µM, a TGI (SNB-19 CNS) greater than 100 µM and a TGI (SNB-75 CNS) of 43.6 µM. The TGI (SR leukemia) was greater than 100 µM, the TGI (SW-620 colon) was greater than 100 µM and the TGI (T-47D breast) was greater than 100 µM. It also gave a TGI (TK-10 renal) of 37.4 µM, a TGI (U251 CNS) of 27.3 µM and a TGI (UACC-257 melanoma) greater than 100 µM. The TGI (UACC-62 melanoma) was greater than 100 µM and the TGI (UO-31 renal) was greater than 100 µM.
`CN(C)c1nc(=NCc2ccncc2)ss1` gave a TGI (786-0 renal) of 31.5 µM, a TGI (A498 renal) greater than 100 µM and a GI50 (A549 NSCLC) greater than 100 µM. For the same molecule, the TGI (A549 NSCLC) was greater than 100 µM, the TGI (ACHN renal) was 18.7 µM and the TGI (BT-549 breast) was 44 µM. For the same molecule, the TGI (CAKI-1 renal) was greater than 56.3 µM, the TGI (CCRF-CEM leukemia) was 49.6 µM and the TGI (COLO 205 colon) was greater than 100 µM. It also gave a GI50 (DU-145 prostate) greater than 100 µM, a TGI (DU-145 prostate) greater than 100 µM and a TGI (EKVX NSCLC) greater than 100 µM. It also gave a TGI (HCC-2998 colon) greater than 100 µM, a TGI (HCT-116 colon) of 40.7 µM and a TGI (HCT-15 colon) greater than 100 µM. It also gave a GI50 (HL-60(TB) leukemia) of 14.2 µM, a TGI (HL-60(TB) leukemia) of 47 µM and a GI50 (HOP-62 NSCLC) greater than 100 µM. It also gave a TGI (HOP-62 NSCLC) greater than 100 µM, a TGI (HOP-92 NSCLC) greater than 100 µM and a TGI (HS 578T breast) of 70.3 µM. The TGI (HT29 colon) was 38.5 µM, the TGI (IGROV1 ovarian) was greater than 100 µM and the TGI (K-562 leukemia) was 47.7 µM. It also gave a GI50 (KM12 colon) greater than 100 µM, a TGI (KM12 colon) greater than 100 µM and a TGI (LOX IMVI melanoma) of 31.1 µM. It also gave a TGI (M14 melanoma) of 36.1 µM, a TGI (MALME-3M melanoma) greater than 31.6 µM and a TGI (MCF7 breast) greater than 100 µM. The TGI (MDA-MB-231 breast) was greater than 54 µM, the TGI (MDA-MB-435) was greater than 100 µM and the TGI (MDA-N) was greater than 31.6 µM. The TGI (MOLT-4 leukemia) was 51.1 µM, the TGI (NCI-H226 lung) was greater than 100 µM and the TGI (NCI-H23 lung) was 38.2 µM. It also gave a TGI (NCI-H460 lung) greater than 100 µM, a TGI (NCI-H522 lung) greater than 100 µM and a TGI (NCI/ADR-RES ovarian) greater than 100 µM. The TGI (OVCAR-3 ovarian) was greater than 82.3 µM, the TGI (OVCAR-4 ovarian) was 39.2 µM and the TGI (OVCAR-5 ovarian) was 54.4 µM. It also gave a TGI (OVCAR-8 ovarian) of 34.6 µM, a TGI (PC-3 prostate) greater than 63.4 µM and a TGI (RPMI-8226 leukemia) of 53.1 µM. For the same molecule, the TGI (RXF 393 renal) was 92.7 µM, the TGI (SF-268 CNS) was greater than 100 µM and the TGI (SF-295 CNS) was greater than 100 µM. The TGI (SF-539 CNS) was greater than 67 µM, the TGI (SK-MEL-28 melanoma) was greater than 93.9 µM and the GI50 (SK-MEL-5 melanoma) was greater than 100 µM. For the same molecule, the TGI (SK-MEL-5 melanoma) was greater than 100 µM, the TGI (SK-OV-3 ovarian) was greater than 64.6 µM and the TGI (SN12C renal) was 36 µM. For the same molecule, the TGI (SNB-19 CNS) was greater than 100 µM, the TGI (SNB-75 CNS) was 34.7 µM and the GI50 (SR leukemia) was 19 µM. For the same molecule, the TGI (SR leukemia) was 44.6 µM, the TGI (SW-620 colon) was 50.7 µM and the TGI (T-47D breast) was greater than 51.8 µM. For the same molecule, the TGI (TK-10 renal) was greater than 100 µM, the TGI (U251 CNS) was 32.1 µM and the TGI (UACC-257 melanoma) was greater than 61.2 µM. The TGI (UACC-62 melanoma) was greater than 48.1 µM and the TGI (UO-31 renal) was greater than 80.9 µM.
